{"source": "ChEMBL document CHEMBL3137386", "about": "“DNDi T. cruzi fenarimol series dataset from which preclinical candidate EPL-BS1246 was identified (see also related datasets CHEMBL2448688 and CHEMBL3137440)”", "key": {"[1]": {"assay": "DNDI: Lipophilicity (s.f. LogD water)", "format": "physicochemical"}, "[2]": {"assay": "DNDI: Solubility, 24 hour, FaSSIF buffer - pH 5.8, 37C", "format": "physicochemical", "details": "read-out: Equilibrium"}, "[3]": {"assay": "DNDI: Solubility, 24 hour, FaSSIF buffer - pH 6.5. 37C", "format": "physicochemical", "details": "read-out: Equilibrium"}, "[4]": {"assay": "(§1) DNDI: Solubility, 24 hour, Isotonic phos buffer - pH 2", "format": "physicochemical", "details": "isotonic phosphate buffer, read-out: Equilibrium"}, "[5]": {"assay": "DNDI: Protein binding in rat plasma", "format": "ADME, 10116", "details": "read-out: % bound (converted)"}, "[6]": {"biological_target": "T1, Cytochrome P450 3A4 (Homo sapiens, UniProt P08684)", "T1 sequence (P08684 whole entry)": "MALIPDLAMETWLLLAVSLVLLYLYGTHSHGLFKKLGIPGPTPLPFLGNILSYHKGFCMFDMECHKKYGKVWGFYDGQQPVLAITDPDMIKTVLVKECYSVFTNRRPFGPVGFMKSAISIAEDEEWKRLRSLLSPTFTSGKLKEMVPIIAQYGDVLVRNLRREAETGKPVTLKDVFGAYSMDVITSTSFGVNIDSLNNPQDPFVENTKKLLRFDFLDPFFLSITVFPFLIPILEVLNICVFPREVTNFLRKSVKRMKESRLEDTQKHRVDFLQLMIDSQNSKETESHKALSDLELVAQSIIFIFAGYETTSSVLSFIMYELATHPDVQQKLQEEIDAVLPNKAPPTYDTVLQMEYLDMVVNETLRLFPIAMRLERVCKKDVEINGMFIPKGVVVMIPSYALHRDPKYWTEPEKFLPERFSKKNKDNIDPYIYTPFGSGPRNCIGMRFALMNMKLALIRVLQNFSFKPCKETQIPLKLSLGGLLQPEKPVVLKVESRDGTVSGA", "assay": "(§2) DNDI: CYP Inhibition", "format": "ADME"}, "[7]": {"assay": "DNDI: Protein binding in human liver microsomes", "format": "ADME", "details": "read-out: % bound (converted)"}, "[8]": {"assay": "(§3) DNDI: Solubility, 24 hour, FaSSIF, 37C", "format": "physicochemical", "details": "read-out: Equilibrium"}, "[9]": {"assay": "(§4) DNDI: Metabolism", "format": "ADME, Microsome", "details": "human, microsomes"}, "[10]": {"system": "Trypanosoma brucei rhodesiense", "assay": "DNDI: HAT in vitro", "format": "functional, organism-based", "details": "ATCC 30027"}, "[11]": {"assay": "as §4", "format": "ADME, Canis lupus familiaris, 9615, Microsome", "details": "dog, microsomes"}, "[12]": {"assay": "DNDI: Protein binding in human plasma", "format": "ADME", "details": "read-out: % bound (converted)"}, "[13]": {"assay": "as §4", "format": "ADME, 10116, Microsome", "details": "rat, microsomes"}, "[14]": {"assay": "DNDI: Protein binding in dog plasma", "format": "ADME, Canis lupus familiaris, 9615", "details": "read-out: % bound (converted)"}, "[15]": {"biological_target": "T1, Cytochrome P450 3A4", "assay": "as §2", "format": "ADME", "remark": "listed apart in the source"}, "[16]": {"assay": "DNDI: Protein binding in mouse plasma", "format": "ADME, 10090", "details": "read-out: % bound (converted)"}, "[17]": {"system": "Trypanosoma cruzi", "assay": "(§5) DNDI: Chagas in vitro", "format": "functional, organism-based, Tulahuen C4 (LacZ)"}, "[18]": {"system": "Trypanosoma cruzi", "assay": "as §5", "format": "functional, Tulahuen C4 (LacZ)"}, "[19]": {"biological_target": "T1, Cytochrome P450 3A4", "assay": "as §2", "format": "ADME", "remark": "listed apart in the source"}, "[20]": {"assay": "as §3", "format": "physicochemical", "details": "read-out: Equilibrium", "remark": "listed apart in the source"}, "[21]": {"assay": "DNDI: Lipophilicity (s.f. LogD) at pH 7.4", "format": "physicochemical", "details": "buffer"}, "[22]": {"assay": "DNDI: Lipophilicity (s.f. LogD) at pH 5", "format": "physicochemical", "details": "buffer"}, "[23]": {"assay": "DNDI: Lipophilicity (gLogD) at pH 3", "format": "physicochemical", "details": "buffer"}, "[24]": {"assay": "DNDI: Solubility in 0.01M HCl at pH 2 determined by nephelometry", "format": "physicochemical", "details": "0.01 M HCl"}, "[25]": {"assay": "DNDI: Lipophilicity (s.f. LogD) at pH 2", "format": "physicochemical", "details": "buffer"}, "[26]": {"assay": "DNDI: pKa", "format": "physicochemical"}, "[27]": {"assay": "as §4", "format": "ADME, 10090, Microsome", "details": "mouse, microsomes"}, "[28]": {"assay": "DNDI: Protein binding 10% serum RPMI", "format": "ADME", "details": "RPMI with 10% serum; read-out: % bound (converted)"}, "[29]": {"assay": "DNDI: Solubility, 24 hour, SGF - pH 1, 37C", "format": "physicochemical", "details": "read-out: Equilibrium"}, "[30]": {"assay": "DNDI: Lipophilicity (gLogD) at pH 7.4", "format": "physicochemical", "details": "buffer"}, "[31]": {"assay": "as §1", "format": "physicochemical", "details": "isotonic phosphate buffer, read-out: Equilibrium", "remark": "listed apart in the source"}, "[32]": {"system": "L6", "assay": "(§6) DNDI: Cytotoxicity against L-6 rat myoblasts from skeletal muscle", "format": "toxicity, cell-based, Muscle tissue", "details": "l6"}, "[33]": {"assay": "as §6", "format": "toxicity, cell-based, Muscle tissue, L6", "details": "rat, L6 rat skeletal muscle myoblasts"}}, "note": "“And” between values parts separate entries of the source, which are not always exact repeats. Equal entries are not always repeated."}
{"smiles": "O=C(C(c1ccc(Cl)cc1)c1cccnc1)N1CCN(c2ccc(C(F)(F)F)cc2)CC1", "note": "(configuration not stated)", "values": [{"measurement": "logD", "setting": "[1]", "result": 5.44}, {"measurement": "solubility thermodynamic at 24 h", "setting": "[2]", "result": "< 1", "unit": "µg/mL"}, {"measurement": "solubility thermodynamic at 24 h", "setting": "[3]", "result": "< 1", "unit": "µg/mL"}, {"measurement": "solubility thermodynamic at 24 h", "setting": "[4]", "result": 127, "unit": "µg/mL"}, {"measurement": "fraction unbound", "setting": "[5]", "result": 0.027}, {"measurement": "IC50", "setting": "[6]", "result": 1200, "unit": "nM"}, {"measurement": "fraction unbound", "setting": "[7]", "result": 0.023}, {"measurement": "solubility thermodynamic at 24 h", "setting": "[8]", "result": 75.9, "unit": "µg/mL"}, {"measurement": "half-life", "setting": "[9]", "result": 1.42, "unit": "h"}, {"measurement": "microsomal CLint", "setting": "[9]", "result": 20, "unit": "µL/min/mg"}, {"measurement": "hepatic extraction ratio", "setting": "[9]; read-out: EH", "result": 0.53}, {"measurement": "IC50", "setting": "[10]", "result": "> 10000", "unit": "nM"}, {"measurement": "half-life", "setting": "[11]", "result": 2.17, "unit": "h"}, {"measurement": "microsomal CLint", "setting": "[11]", "result": 13, "unit": "µL/min/mg"}, {"measurement": "hepatic extraction ratio", "setting": "[11]; read-out: EH", "result": 0.38}, {"measurement": "fraction unbound", "setting": "[12]", "result": 0.025}, {"measurement": "half-life", "setting": "[13]", "result": 0.767, "unit": "h"}, {"measurement": "microsomal CLint", "setting": "[13]", "result": 38, "unit": "µL/min/mg"}, {"measurement": "hepatic extraction ratio", "setting": "[13]; read-out: EH", "result": 0.55}, {"measurement": "fraction unbound", "setting": "[14]", "result": 0.012}, {"measurement": "IC50", "setting": "[15]", "result": 7400, "unit": "nM"}, {"measurement": "fraction unbound", "setting": "[16]", "result": 0.014}, {"measurement": "IC50", "setting": "[17]", "result": 7, "unit": "nM"}, {"measurement": "IC50", "setting": "[17]; Trypanosoma cruzi, Tulahuen C4 (LacZ)", "result": 10, "unit": "nM"}, {"measurement": "IC90", "setting": "[18]", "result": "10 nM and 47.5 nM"}, {"measurement": "IC50", "setting": "[19]", "result": 20000, "unit": "nM"}, {"measurement": "solubility thermodynamic at 24 h", "setting": "[20]", "result": 1.3, "unit": "µg/mL"}, {"measurement": "logD", "setting": "[21]", "result": 5.54}, {"measurement": "logD", "setting": "[22]", "result": 5.47}, {"measurement": "chromatographic logD", "setting": "[23]", "result": 4.1}, {"measurement": "solubility kinetic", "setting": "[24]", "result": "> 100", "unit": "µg/mL"}, {"measurement": "logD", "setting": "[25]", "result": 2.71}, {"measurement": "pKa", "setting": "[26]", "result": 2.62}, {"measurement": "half-life", "setting": "[27]", "result": 0.5, "unit": "h"}, {"measurement": "microsomal CLint", "setting": "[27]", "result": 59, "unit": "µL/min/mg"}, {"measurement": "hepatic extraction ratio", "setting": "[27]; read-out: EH", "result": 0.72}, {"measurement": "fraction unbound", "setting": "[28]", "result": 0.076}, {"measurement": "solubility thermodynamic at 24 h", "setting": "[29]", "result": 1500, "unit": "µg/mL"}, {"measurement": "chromatographic logD", "setting": "[30]", "result": 4.5}, {"measurement": "solubility thermodynamic at 24 h", "setting": "[31]", "result": "< 1", "unit": "µg/mL"}, {"measurement": "IC50", "setting": "[32]", "result": 42400, "unit": "nM"}, {"measurement": "IC50", "setting": "[33]", "result": 37700, "unit": "nM"}]}
